From EP3313408B1, “DROSPIRENONE-BASED CONTRACEPTIVE FOR A PATIENT AFFECTED WITH EXCESS WEIGHT” (Laboratorios Leon Farma SA, priority 2015, dated 2016)

Experiment: Trial CF111/302: number of days with bleeding and/or spotting over 9 treatment cycles
Assay type: in vivo, women
Method: The study CF111/302 below represents a pivotal, multicentre, double-blind, double-dummy, randomised trial on the contraceptive efficacy, tolerability and safety of LF111 (DRSP) over 9 cycles of 28 days of treatment (24 active test product tablets followed by 4 days of placebo tablets).
LF111 film-coated tablets (test product; 24 tablets containing 4 mg DRSP followed by 4 placebo tablets; León Farma) was orally administered during this trial. LF111 tablets are of the following formula: […]
This prospective, multicentre, randomised, double-blind, double-dummy trial was conducted on 857 women without uncontrolled current diseases, at risk of pregnancy, at the age of 18-45 years, systolic blood pressure < 140 mmHg, diastolic blood pressure < 90 mmHg followed in approximately 73 centres in Austria, Czech Republic, Germany, Hungary, Poland, Romania, Slovakia and Spain.
After providing informed consent at visit 1a (screening; V 1a) and receiving study medication at visit 1b, subjects will attend visits 2 to 4 at day 24±2 of the 1st, 3rd, and 6th cycle, and visit 5 (V5) at day 29+2 of the 9th cycle. The follow-up (visit 6; V6) will take place 7-10 days after last LF1 1 1 intake.
The planned total duration of the trial was set to be 16 months, with a maximum of 6 months for the enrolment process, a maximum of 9 months for the contraceptive treatment per se and 10 days for the follow-up step. The duration of contraceptive treatment for the individual women is 9 x 28 days. […]

- Bleeding or spotting Mean # days (Period cycles 2-4, BMI < 30 kg/m^2): 16.6 days
- Bleeding or spotting Mean # days (Period cycles 2-4, BMI ≥ 30 kg/m^2): 21.8 days
- Bleeding or spotting Mean # days (Period cycles 2-6, BMI < 30 kg/m^2): 24.1 days
- Bleeding or spotting Mean # days (Period cycles 2-6, BMI ≥ 30 kg/m^2): 16.3 days
- Bleeding or spotting Mean # days (Period cycles 2-9, BMI < 30 kg/m^2): 34.7 days
- Bleeding or spotting Mean # days (Period cycles 2-9, BMI ≥ 30 kg/m^2): 33.9 days
Compound: C#C[C@]1(O)CC[C@H]2[C@@H]3CCC4=CCCC[C@@H]4[C@H]3C(=C)C[C@@]21CC [desogestrel]
